Results as given in paper PMC7896091, “Synthesis of novel phytol-derived γ-butyrolactones and evaluation of their biological activity” (Scientific Reports, 2021).

Experiments:
albino mice = tested on: albino mice; design: method as in PMID 20141879; details: cited from earlier work
rats = tested on: rats; design: method as in PMID 20141879; details: cited from earlier work
MV4-11 cells = assay: Cell cycle analysis by flow cytometry (propidium iodide); type: cell-based, human; details: MV4-11, 75 µM, 72 h
Procedure: Cell cycle analysis was carried out according to the procedure previously described. The MV4-11 cells were seeded at the density of 1 × 10^5 cells/well of culture medium on 24-well plates (Sarstedt, Germany) to the final volume of 2 mL and were exposed to the test compounds at concentrations 75 μM for 72 h. After incubation, the cells were collected and 1 × 10^6 of cells were washed twice in cold PBS and fixed for 24 h in 70% ethanol at − 20 °C. Then the cells were washed twice in PBS and incubated with RNAse (8 μg/mL, Fermentas, Germany) at 37 °C for 1 h. The cells were stained for 30 min. with propidium iodide (50 μg/mL, Sigma Aldrich, Germany) at 4 °C and the cellular DNA content was analyzed by flow cytometry using BD LSRFortessa cytometer (BD Bioscience, San Jose, USA). Compounds at each concentration were tested at least three times independently. Obtained results were analyzed using Flowing software 2 (Cell Imaging Core, Turku Centre for Biotechnology, University of Turku Åbo Akademi University).

[1] = tested on: caspase-3/7 in MV4-11 cells; assay: Caspase-3/7 activity determination (Ac-DEVD-ACC substrate); type: cell-based, human; details: MV4-11, 75 µM, 72 h
Procedure: Caspase-3/7 activity determination was performed according to the protocol previously described. The MV4-11 cells were seeded at the density of 1 × 10^5 cells/mL of culture medium on 24-well plates (Sarstedt, Germany) to the final volume of 2 mL. The cells were exposed to the test compounds at concentrations 75 μM or campthothecin (0.05 μg/mL) as a positive control, for 72 h. After 72 h of the incubation, the cells were collected and centrifuged (5 min., 4 °C, 250×g). Cells were suspended in 50 µL of ice-cold lysis buffer (50 mM HEPES, 10% (w/v) sucrose, 150 mM NaCl, 2 mM EDTA, 1% (v/v) Triton X-100, pH 7.3, IIET, Poland) and incubated 30 min. at 4 °C. After the incubation, 40 µL of each sample was transferred to a white, 96-well plate (Corning, USA) containing 160 µL of the reaction buffer (20 mM HEPES, 10% sucrose, 100 mM NaCl, 1 mM EDTA, 10 mM DTT, 0.02% Trition X-100, pH 7.3) (IIET, Wroclaw, Poland) with 9 µM Ac-DEVD-ACC fluorogenic substrate (λex = 360 nm, λem = 460 nm). The fluorescence increase correlated with the caspase-3/7 level was continuously recorded at 37 °C for 120 min using a Biotek Synergy H4 (Biokom, Warsaw, Poland). Compounds were tested in duplicates in single experiment and each experiment was repeated at least three times independently. Results were normalized to the number of cells in each well and are reported as mean relative caspase-3/7 activity compared to untreated control sample ± SD.

| Compound | Lethal dose (LD50) (albino mice) | Lethal dose (LD50) (rats) [mg/kg] | Induced death of cells (MV4-11 cells) | Increase of caspase-3/7 activity compared to the control [1] |
| --- | --- | --- | --- | --- |
| 3,7,11,15-tetramethylhexadec-2-en-1-ol [Phytol (1), reference compound] | above 5 g/kg | > 10000 | – | – |
| CC(C)CCCC(C)CCCC(C)CCC[C@]1(C)CC(=O)O[C@@H]1CBr (stereo in doubt) [compound 4, trans-5-Bromomethyl-4-methyl-4-(4′,8′,12′-trimethyltridecyl)dihydrofuran-2-one] | – | – | 20–30% | – |
| CC(C)CCCC(C)CCCC(C)CCC[C@]1(C)CC(=O)O[C@H]1CBr (stereo in doubt) [compound 5, cis-5-Bromomethyl-4-methyl-4-(4′,8′,12′-trimethyltridecyl)dihydrofuran-2-one] | – | – | 20–30% | – |
| CC(C)CCCC(C)CCCC(C)CCC[C@]1(C)CC(=O)O[C@@H]1CCl (stereo in doubt) [compound 6, trans-5-Chloromethyl-4-methyl-4-(4′,8′,12′-trimethyltridecyl)dihydrofuran-2-one] | – | – | 50% | about 1.5 times |
| CC(C)CCCC(C)CCCC(C)CCC[C@]1(C)CC(=O)O[C@H]1CCl (stereo in doubt) [compound 7, cis-5-chloromethyl-4-methyl-4-(4′,8′,12′-trimethyltridecyl)dihydrofuran-2-one] | – | – | 20–30% | – |
| C=CC(C)(CCCC(C)CCCC(C)CCCC(C)C)CC(=O)O (stereo not drawn) [compound 3, 3,7,11,15-tetramethyl-3-vinylhexadecanoic acid] | – | – | 50% | 3 times |
